Reference: patent US5462926A (Biomeasure, Inc., priority 1993, dated 1995)
Where a SMILES comes first, the peptide text is derived from it. Bridges are numbered along the chain shown (N, C = ends). [ ]: non-standard residue; d: D form. 2Nal = N[C@@H](Cc1ccc2ccccc2c1)C(=O)O; d2Nal = N[C@H](Cc1ccc2ccccc2c1)C(=O)O

Assays:
[1] = target: GRP receptor (Rattus norvegicus, UniProt P52500); experiment: Amylase release from rat pancreatic acini (alone or Bn-stimulated); format: cell-based; parameters: from tissue; host or cells: dispersed pancreatic acini; settings: for Amylase Release, analog Alone (10 μM): analog 10 μM alone, control 4 ± 1; for Amylase Release, analog Plus Bn (0.3 nM): analog 10 μM plus Bn 0.3 nM, Bn without analog 15 ± 1
Experimental: pancreatic acini or [^3 H]myo[2H]inositolloaded NMBR transfected cell
were incubated either with no additives, the somatostatin octapeptide
analog, Bn, or NMB, or a combination for 30 min at 37° C.. Amylase
release from pancreatic acini was expressed at the indicated percent of
the total cellular amylase released during the incubation. [^3 H]IP i
expressed in dpm's. To test for inhibitory effects, the effect of
somatostatin analog (10 μM) was determined on 0.3 nM Bnstimulated

[2] = target: T1, NMB receptor (Rattus norvegicus, UniProt P24053); experiment: [3H]inositol phosphates in NMB-R transfected cells (alone or NMB-stimulated); format: cell-based; parameters: a full length NMB-preferring bombesin receptor clone generated from rat esophagus; expressed in transfected cells; settings: NMB-R transfected cells; for [3H]IP, analog Alone (10 μM): analog 10 μM alone, control 13 ± 3; for [3H]IP, analog Plus NMB (3 nM): analog 10 μM plus NMB 3 nM, NMB without analog 186 ± 58
T1 sequence (P24053 1-390): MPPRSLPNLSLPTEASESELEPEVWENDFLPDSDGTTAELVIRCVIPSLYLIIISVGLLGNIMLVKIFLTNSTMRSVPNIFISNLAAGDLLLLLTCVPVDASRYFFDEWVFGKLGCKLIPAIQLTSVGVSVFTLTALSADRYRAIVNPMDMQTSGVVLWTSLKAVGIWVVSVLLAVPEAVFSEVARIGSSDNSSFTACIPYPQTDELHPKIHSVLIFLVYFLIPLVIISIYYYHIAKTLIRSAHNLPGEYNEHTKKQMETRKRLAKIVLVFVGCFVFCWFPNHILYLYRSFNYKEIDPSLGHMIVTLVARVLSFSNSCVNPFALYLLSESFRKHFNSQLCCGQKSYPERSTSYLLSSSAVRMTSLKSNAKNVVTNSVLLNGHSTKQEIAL
Experimental: As described previously [Wada, E., et al. Neuron 6:421 (1991)], BALB 3T3 cells expressing a stably transfected rat NMB receptor (NMB-R transfected cells) were obtained using calcium phosphate precipitation of a full length NMB-preferring bombesin receptor clone generated from rat esophagus and subcloned into a modified version of the pCD2 plasmid. Cells were passaged every 3-4 days at confluence, using 0.1% trypsin in 1 mM EDTA. Rat glioblastoma C-6 tumor cells were maintained similarly and were passaged weekly at confluence. Both cell lines were cultured at 37° C. in a 5% CO2 atmosphere. Rat AR 42J pancreatic acinar cells were cultured in Dulbecco's modified Eagle's medium (DMEM) without antibiotics and supplemented with 10% (vol/vol) fetal calf serum. The incubation atmosphere consisted of 10% CO2 -90% humidified air at 37° C.
Measurement of phosphoinositides
Total phosphoinositides in C-6 cells and in NMB-R transfected cells were determined as described previously, with minor modifications [Benya, R. V. et al. Mol. Pharmacol. 42:1058 (1992); and Wang, L-H. et al. Biochem. Jo 286:641 (1992)]. Cells were grown to confluence in 24-well plates and then loaded with 100 μCi/ml myo-[2-^3 H]inositol in Dulbecco's modified essential medium with 2% fetal bovine serum at 37° C. for 48 hrs. Cells were washed and incubated in phosphoinositide buffer (standard buffer additionally containing 10 mM LiCl, 20 mM HEPES, 2 mM CaCl2, 2% BSA, and 1.2 mM MgSO4) for 15 min and then for 60 min at 37° C. with agonists at various concentrations or with 3 nM NMB (a half-maximal effective concentration) and possible antagonists at different concentrations. Reactions were halted using ice-cold 1% HCl in methanol, and the inositol phosphates (IP) were isolated as described previously [Bologna, M. et al. Cancer 63:1714 (1989); and Endo, T. et al. J. Endocrinolo 131:313 (1991)]. Briefly, after loading of the anion exchange column, free [^3 H]glycerophosphorylinositol was removed by washing with 5 mM disodium tetraborate in 60 mM sodium formate. Total [^3 H]inositol phosphates were then eluted using 100 mM formic acid in 1.0M ammonium formate as described previously [Benya, R. V. et al. Mol. Pharmacol. 42:1058 (1992); and Wang, L-H. et al. Biochem. J. 286:641 (1992 )].

[3] = target: T2, rat NMB receptor (Rattus norvegicus, UniProt P24053); experiment: Binding of 125I-[D-Tyr0]NMB to NMB-R transfected BALB 3T3 cells; settings: for fold decrease in NMB receptor affinity compared with cyclo SS-octa (#1): structure-function comparison from Table 1
T2 construct: a full length NMB-preferring bombesin receptor clone generated from rat esophagus; expressed in transfected cells
T2 sequence (P24053 1-390): T1 sequence (P24053 1-390)
Experimental: Cells were passaged every 3-4 days at confluence, using 0.1% trypsin in 1 mM EDTA. Rat glioblastoma C-6 tumor cells were maintained similarly and were passaged weekly at confluence. Both cell lines were cultured at 37° C. in a 5% CO2 atmosphere. Rat AR 42J pancreatic acinar cells were cultured in Dulbecco's modified Eagle's medium (DMEM) without antibiotics and supplemented with 10% (vol/vol) fetal calf serum. The incubation atmosphere consisted of 10% CO2 -90% humidified air at 37° C.

Sequence of GRP receptor (P52500 whole entry): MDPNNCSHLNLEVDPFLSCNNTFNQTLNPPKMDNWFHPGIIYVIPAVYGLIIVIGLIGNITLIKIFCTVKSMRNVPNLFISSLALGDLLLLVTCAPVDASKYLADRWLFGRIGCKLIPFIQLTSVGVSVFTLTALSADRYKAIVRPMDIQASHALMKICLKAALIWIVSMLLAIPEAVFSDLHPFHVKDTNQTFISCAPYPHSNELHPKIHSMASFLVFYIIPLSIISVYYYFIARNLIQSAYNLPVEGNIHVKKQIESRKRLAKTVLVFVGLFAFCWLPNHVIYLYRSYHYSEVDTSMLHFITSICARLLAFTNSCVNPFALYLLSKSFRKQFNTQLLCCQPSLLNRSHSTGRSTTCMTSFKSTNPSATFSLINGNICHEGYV

Row | Compound | Amylase Release, analog Alone (10 μM) [1] | Amylase Release, analog Plus Bn (0.3 nM) [1] | [3H]IP, analog Alone (10 μM) [2] | [3H]IP, analog Plus NMB (3 nM) [2] | fold decrease in NMB receptor affinity compared with cyclo SS-octa (#1) [3] | effect at 10 μM on NMB-stimulated increase in [3H]IP ([2]; 10 μM, 3 nM NMB) | fold by which cyclo SS-octa is more potent than the analog, 125I-NMB binding ([3]; NMB-R transfected cells)
1 | CSCC[C@H](NC(=O)[C@H](C)NC(=O)[C@@H]1CCCN1C(=O)[C@H](CC(N)=O)NC(=O)[C@H](CO)NC(=O)[C@H](CC(N)=O)NC(=O)[C@H](C)NC(=O)[C@@H](N)CO)C(=O)N[C@@H](C)C(=O)N1CCC[C@H]1C(=O)N[C@@H](CCCNC(=N)N)C(=O)N[C@@H](CCC(=O)O)C(=O)N[C@@H](CCCNC(=N)N)C(=O)N[C@@H](CCCCN)C(=O)N[C@@H](C)C(=O)NCC(=O)N[C@H]1CSSC[C@@H](C(=O)O)NC(=O)[C@H](CO)NC(=O)[C@H]([C@@H](C)O)NC(=O)[C@H](Cc2ccccc2)NC(=O)[C@H]([C@@H](C)O)NC(=O)[C@H](CCCCN)NC(=O)[C@H](Cc2c[nH]c3ccccc23)NC(=O)[C@H](Cc2ccccc2)NC(=O)[C@H](Cc2ccccc2)NC(=O)[C@H](CC(N)=O)NC(=O)[C@H](CCCCN)NC1=O [SS-28, somatostatin-28, reference compound] | 4 ± 1 % total | 10 ± 1 % total | – | – | – | – | –
2 | C[C@H](N)C(=O)NCC(=O)N[C@H]1CSSC[C@@H](C(=O)O)NC(=O)[C@H](CO)NC(=O)[C@H]([C@@H](C)O)NC(=O)[C@H](Cc2ccccc2)NC(=O)[C@H]([C@@H](C)O)NC(=O)[C@H](CCCCN)NC(=O)[C@H](Cc2c[nH]c3ccccc23)NC(=O)[C@H](Cc2ccccc2)NC(=O)[C@H](Cc2ccccc2)NC(=O)[C@H](CC(N)=O)NC(=O)[C@H](CCCCN)NC1=O [SS-14, somatostatin-14, reference compound] | 3 ± 1 % total | 12 ± 1 % total | – | – | – | – | –
3 | NCCCC[C@@H]1NC(=O)[C@@H](Cc2c[nH]c3ccccc23)NC(=O)[C@H](Cc2ccc(O)cc2)NC(=O)[C@@H](NC(=O)[C@H](N)Cc2ccc3ccccc3c2)CSSC[C@@H](C(=O)N[C@@H](Cc2ccc3ccccc3c2)C(N)=O)NC(=O)[C@H](Cc2ccc3ccccc3c2)NC1=O [Analog #3, H2 -D-Nal-Cys-Tyr-D-Trp-Lys-Nal-Cys-Nal-NH2] (H-[d2Nal]CY[dW]K[2Nal]C[2Nal]-NH2; disulfide 2-7) | 3 ± 1 % total | 15 ± 1 % total | 11 ± 1 dym × 10^3 | 65 ± 15 dym × 10^3 | 2 to 3 fold | – | –
4 | CC(C)[C@@H]1NC(=O)[C@H](CCCCN)NC(=O)[C@@H](Cc2c[nH]c3ccccc23)NC(=O)[C@H](Cc2ccc(O)cc2)NC(=O)[C@@H](NC(=O)[C@H](N)Cc2ccc3ccccc3c2)CSSC[C@@H](C(=O)N[C@H](C(N)=O)[C@@H](C)O)NC1=O [Analog #5] | 3 ± 1 % total | 12 ± 1 % total | 11 ± 2 dym × 10^3 | 179 ± 13 dym × 10^3 | 80 fold | no effect | 69 fold
